Laboratory results from patent US7544666B2, “NAP derivatives” (Industrial Technology Research Institute, priority 2005, dated 2009).
Where a SMILES comes first, the peptide text is derived from it. Bridges are numbered along the chain shown (N, C = ends).

Key:
[1] = Stability in Hanks' balanced salt solution (HBSS); type: physicochemical; settings: 37° C., relative to initial conc. in HBSS = 100.00
Experimental: (§1) The stability of the NAP derivatives prepared by EXAMPLE 1 was measured with the system of human colon cancer cell, Caco-2 cell. Caco-2 cells (1×10^5 cells) were first seeded into a polycarbonate film on the upper layer of a 12-well Transwell and incubated for 18 to 26 days at 37° C. The TEER of the Caco-2 cell monolayer was measured over 350 Ω×cm^2. The stability of the NAP derivatives in the Hanks' balanced salt solutions (HBSS) was measured by the concentration changes of NAP and the NAP derivatives incubated in the HBSS at 37° C. for 4 hours. The stability of the NAP derivatives in the Caco-2 cell system was measured by the procedure described below. NAP and the NAP derivatives in the HBSS were added into the upper layer of the Caco-2 cell-seeded Transwell. After 4-hour incubation, the concentration of NAP and the NAP derivatives in the upper and lower layers was measured and analyzed in comparison with the initial concentration (500 μM) by reverse HPLC at 210 nm.

Caco-2 cell = assay: Stability in the Caco-2 cell system; type: in vitro ADME, human; settings: 4-hour incubation in Caco-2 Transwell; relative to initial conc. = 100.00 (500 μM)
Experimental: as §1

Caco-2 cell monolayer = assay: Permeation to Caco-2 cell monolayer; type: in vitro ADME, human; design: unit not given here; settings: 4-hour incubation, initial concentration 500 μM in upper layer
Experimental: The permeation of NAP and the NAP derivatives was examined using the Caco-2 cell system. Caco-2 cells (1×10^5 cells) were seeded into the polycarbonate film on the upper layer of a 12-well Transwell and incubated at 37° C. for 18 to 26 days. The TEER of the Caco cell monolayer was measured over 350 Ω×cm^2. NAP and the NAP derivatives in the HBSS were added into the upper layer of the Caco-2 cell-seeded Transwell. After 4-hour incubation, the concentration of NAP and the NAP derivatives in the upper and lower layers was measured and analyzed in comparison with the initial concentration (500 μM) by reverse phase HPLC at 210 nm.

| Compound | Conc. after 4-hour in HBSS [1] | Conc. after 4-hour in Caco-2 cells (Caco-2 cell) | Conc. at the lover layer (Caco-2 cell monolayer) |
| --- | --- | --- | --- |
| CCCC(=O)N[C@@H](CC(N)=O)C(=O)N[C@@H](C)C(=O)N1CCC[C@H]1C(=O)N[C@H](C(=O)N[C@@H](CO)C(=O)N[C@H](C(=O)N1CCC[C@H]1C(=O)N[C@@H](CCC(N)=O)C(=O)O)[C@@H](C)CC)C(C)C [BMEC-NAP0101, Butyryl-NAPVSIPQ-OH] | 97.76 | 56.02 |  |
| CCCCC(=O)N[C@@H](CC(N)=O)C(=O)N[C@@H](C)C(=O)N1CCC[C@H]1C(=O)N[C@H](C(=O)N[C@@H](CO)C(=O)N[C@H](C(=O)N1CCC[C@H]1C(=O)N[C@@H](CCC(N)=O)C(=O)O)[C@@H](C)CC)C(C)C [BMEC-NAP0105, C4H9CO-NAPVSIPQ-OH] | 98.36 | 49.86 |  |
| CCCCCCC(=O)N[C@@H](CC(N)=O)C(=O)N[C@@H](C)C(=O)N1CCC[C@H]1C(=O)N[C@H](C(=O)N[C@@H](CO)C(=O)N[C@H](C(=O)N1CCC[C@H]1C(=O)N[C@@H](CCC(N)=O)C(=O)O)[C@@H](C)CC)C(C)C [BMEC-NAP0106, C6H13CO-NAPVSIPQ-OH] | 102.05 | 26.74 |  |
| CCCCCCCCC(=O)N[C@@H](CC(N)=O)C(=O)N[C@@H](C)C(=O)N1CCC[C@H]1C(=O)N[C@H](C(=O)N[C@@H](CO)C(=O)N[C@H](C(=O)N1CCC[C@H]1C(=O)N[C@@H](CCC(N)=O)C(=O)O)[C@@H](C)CC)C(C)C [BMEC-NAP0107, C8H17CO-NAPVSIPQ-OH] | 98.74 | 24.21 |  |
| CCCC(=O)N[C@@H](CC(N)=O)C(=O)N[C@@H](C)C(=O)N1CCC[C@H]1C(=O)N[C@H](C(=O)N[C@@H](CO)C(=O)N[C@H](C(=O)N1CCC[C@H]1C(=O)N[C@@H](CCC(N)=O)C(N)=O)[C@@H](C)CC)C(C)C [BMEC-NAP0201, Butyryl-NAPVSIPQ-NH2] | 100.39 | 94.18 | 0.12 |
| CC[C@H](C)[C@@H]1NC(=O)[C@H](CO)NC(=O)[C@H](C(C)C)NC(=O)[C@@H]2CCCN2C(=O)[C@H](C)NC(=O)[C@H](CC(N)=O)NC(=O)[C@H](CCC(N)=O)NC(=O)[C@@H]2CCCN2C1=O [BMEC-NAP0301, Cyclo-(NAPVSIPQ)] | 100.72 | 94.72 | 0.35 |
| CC[C@H](C)[C@@H]1NC(=O)[C@H](CO)NC(=O)[C@H](C(C)C)NC(=O)[C@@H]2CCCN2C(=O)[C@H](C)NC(=O)[C@H](CC(N)=O)NC(=O)[C@@H](N)CSSC[C@@H](C(=O)O)NC(=O)[C@H](CCC(N)=O)NC(=O)[C@@H]2CCCN2C1=O [BMEC-NAP0302] (H-CNAPVSIPQC-OH; disulfide 1-10; N-terminus and C-terminus assumed) |  | 81.33 | 1.28 |
| CC[C@H](C)[C@H](NC(=O)[C@H](CO)NC(=O)[C@@H](NC(=O)[C@@H]1CCCN1C(=O)[C@H](C)NC(=O)[C@H](CC(N)=O)NC(=O)OCC(C)C)C(C)C)C(=O)N1CCC[C@H]1C(=O)N[C@@H](CCC(N)=O)C(=O)O [BMEC-NAP0401, iBu-OCO-NAPVSIPQ-OH] | 100.02 | 52.63 | 0.24 |
| CCCCC(CC)COC(=O)N[C@@H](CC(N)=O)C(=O)N[C@@H](C)C(=O)N1CCC[C@H]1C(=O)N[C@H](C(=O)N[C@@H](CO)C(=O)N[C@H](C(=O)N1CCC[C@H]1C(=O)N[C@@H](CCC(N)=O)C(=O)O)[C@@H](C)CC)C(C)C (stereo partly shown) [BMEC-NAP0402, iOct-OCO-NAPVSIPQ-OH] |  | 18.92 | 2.02 |
| CCCCOC(=O)N[C@@H](CC(N)=O)C(=O)N[C@@H](C)C(=O)N1CCC[C@H]1C(=O)N[C@H](C(=O)N[C@@H](CO)C(=O)N[C@H](C(=O)N1CCC[C@H]1C(=O)N[C@@H](CCC(N)=O)C(=O)O)[C@@H](C)CC)C(C)C [BMEC-NAP0403, nBu-OCO-NAPVSIPQ-OH] | 98.49 | 29.05 |  |
| CCCCCCOC(=O)N[C@@H](CC(N)=O)C(=O)N[C@@H](C)C(=O)N1CCC[C@H]1C(=O)N[C@H](C(=O)N[C@@H](CO)C(=O)N[C@H](C(=O)N1CCC[C@H]1C(=O)N[C@@H](CCC(N)=O)C(=O)O)[C@@H](C)CC)C(C)C [BMEC-NAP0404, nHex-OCO-NAPVSIPQ-OH] | 99.16 | 29.87 | 2.00 |
| CCCCCCCCOC(=O)N[C@@H](CC(N)=O)C(=O)N[C@@H](C)C(=O)N1CCC[C@H]1C(=O)N[C@H](C(=O)N[C@@H](CO)C(=O)N[C@H](C(=O)N1CCC[C@H]1C(=O)N[C@@H](CCC(N)=O)C(=O)O)[C@@H](C)CC)C(C)C [BMEC-NAP0405, nOct-OCO-NAPVSIPQ-OH] | 99.66 | 17.11 |  |
| CCCCCCCCCCCCOC(=O)N[C@@H](CC(N)=O)C(=O)N[C@@H](C)C(=O)N1CCC[C@H]1C(=O)N[C@H](C(=O)N[C@@H](CO)C(=O)N[C@H](C(=O)N1CCC[C@H]1C(=O)N[C@@H](CCC(N)=O)C(=O)O)[C@@H](C)CC)C(C)C [BMEC-NAP0406, nDod-OCO-NAPVSIPQ-OH] | 130.04 | 97.75 |  |
| CCCCC(CC)COC(=O)N[C@@H](CC(N)=O)C(=O)N[C@@H](C)C(=O)N1CCC[C@H]1C(=O)N[C@H](C(=O)N[C@@H](CO)C(=O)N[C@H](C(=O)N1CCC[C@H]1C(=O)N[C@@H](CCC(N)=O)C(N)=O)[C@@H](C)CC)C(C)C (stereo partly shown) [BMEC-NAP0502, iOct-OCO-NAPVSIPQ-NH2] |  | 82.37 | 1.39 |
| CC[C@H](C)[C@H](NC(=O)[C@H](CO)NC(=O)[C@@H](NC(=O)[C@@H]1CCCN1C(=O)[C@H](C)NC(=O)[C@H](CC(N)=O)NC(=O)c1ccc(-c2ccccc2)cc1)C(C)C)C(=O)N1CCC[C@H]1C(=O)N[C@@H](CCC(N)=O)C(=O)O [BMEC-NAP0703, 4-Phenylbenzoyl-NAPVSIPQ-OH] | 95.73 | 88.79 |  |
| CC[C@H](C)[C@H](NC(=O)[C@H](CO)NC(=O)[C@@H](NC(=O)[C@@H]1CCCN1C(=O)[C@H](C)NC(=O)[C@H](CC(N)=O)NC(=O)OCC1c2ccccc2-c2ccccc21)C(C)C)C(=O)N1CCC[C@H]1C(=O)N[C@@H](CCC(N)=O)C(N)=O [BMEC-NAP0806, Fmoc-NAPVSIPQ-NH2] | 100.00 | 76.24 |  |
| CC[C@H](C)[C@H](NC(=O)[C@H](CO)NC(=O)[C@@H](NC(=O)[C@@H]1CCCN1C(=O)[C@H](C)NC(=O)[C@H](CC(N)=O)NC(=O)c1ccc2c(c1)C(=O)OC21c2ccc(O)cc2Oc2cc(O)ccc21)C(C)C)C(=O)N1CCC[C@H]1C(=O)N[C@@H](CCC(N)=O)C(=O)O [BMEC-NAP9901, 5(6)FAM-NAPVSIPQ-OH] |  | 81.63 | 0.77 |
| CC[C@H](C)[C@H](NC(=O)[C@H](COP(=O)(O)O)NC(=O)[C@@H](NC(=O)[C@@H]1CCCN1C(=O)[C@H](C)NC(=O)[C@@H](N)CC(N)=O)C(C)C)C(=O)N1CCC[C@H]1C(=O)N[C@@H](CCC(N)=O)C(=O)O [BMEC-NAP9902, NH2-NAPVS(OPO3H2)IPQ-OH] | 98.80 | 94.19 |  |
| Adipyl-NAPVSIPQ-OH [BMEC-NAP0102] | 99.95 | 60.72 |  |
| H-NAPISIPAN-OH [BMEC-NAP0608, H-NAPISIPAN-OH] | 110.89 | 30.58 |  |
| H-NAPISIPQ-OH [BMEC-NAP0604, H-NAPISIPQ-OH] | 103.83 | 23.89 |  |
| H-NAPVSIPAQ-OH [BMEC-NAP0601, H-NAPVSIPAQ-OH] |  |  | 0.07 |
| H-NAPVSLPQ-OH [BMEC-NAP0606, H-NAPVSLPQ-OH] | 99.42 | 11.54 |  |
| H-NAPVSVPQ-OH [BMEC-NAP0605, H-NAPVSVPQ-OH] | 104.25 | 27.76 |  |
| H-QAPVSIPQ-OH [BMEC-NAP0602, H-QAPVSIPQ-OH] | 104.94 | 21.81 |  |
| H-QAPVSVPAQ-OH [BMEC-NAP0607, H-QAPVSVPAQ-OH] | 97.33 | 16.54 |  |
